# Results taken from publication PMC6630718, “Discovery of Novel UV-Filters with Favorable Safety Profiles in the 5-Arylideneimidazolidine-2,4-dione Derivatives Group” (Molecules, 2019).
# Where “and” joins values, the source holds several entries; their conditions need not be identical. Equal values may be shown once.
# Tests used:
# [1] = In vitro stability in mouse liver microsomes; format: in vitro ADME; details: for ester hydrolysis in the presence of microsomes: independently of the presence of a NADPH-regenerating system; for Probable Transformation / half-life at 20 µM / microsomal CLint at 20 µM: mouse liver microsomes; for half-life at 20 µM / microsomal CLint at 20 µM: mouse; for half-life at 20 µM: pH 7.4, mouse liver microsomes 0.8 mg/mL, 20 µM compound, NADPH-regenerating system, 37 °C, read-out: t ½; for microsomal CLint at 20 µM: pH 7.4, mouse liver microsomes, calculated from t1/2
# In short: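 Compound (20 µM) with mouse liver microsomes (0.8 mg/mL), potassium phosphate pH 7.4, NADPH-regenerating system, 37 °C for 15–60 min; parent remaining by UPLC/MS, two repeats. t1/2 from ln % remaining versus time; Clint = (incubation volume/protein) × 0.693/t1/2.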
# [2] = Photostability in macrogol formulations on PMMA plates (solar light simulator); format: physicochemical; details: for % of Initial AUC / % of Initial SPFin vitro / % of Initial UVA PF: after 1 h irradiation at 500 W/m^2, formulation F1
# In short: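 Macrogol formulations (2% w/w) applied at 1.3 mg/cm² on PMMA plates were irradiated 1 h at 500 W/m² (218 kJ/m² UV) in a solar simulator with <290 nm cut-off and IR block. SPFin vitro, UVA PF and AUC were compared before and after exposure, with methanol washes analysed by UPLC-MS/MS, in duplicate.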
# [3] = Ultraviolet spectroscopy in methanol solutions; format: physicochemical; details: for Absorption Range: scan range 290–400 nm
# In short: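 Spectra recorded from 290–400 nm in methanol (50 or 25 μM) in 1 cm quartz cuvettes. εmax taken as the slope of absorbance vs. concentration over 10–50 μM or 2.5–30 μM.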
# [4] = Solubility in cosmetic solvents / macrogol formulations; format: physicochemical; details: typical cosmetic solvents / formulations used
# Excerpt: The composition of formulations and concentration of tested compounds were based on their limited solubility. N-monosubstituted compounds 2a–2e were insoluble at desirable concentrations in the typical solvents used in cosmetic formulations such as alcohols, triacetin, surfactants, and co-surfactants. To dissolve compounds 2a and 2b before incorporation to the formulation DMSO: Tween 20 (1:9 w/w) was used, for less soluble 2c–2e it was necessary to use DMSO alone as solvent. […] Thus the detailed composition of the formulations is as follows: F1–Tween 20 43.2%, PEG-400 25%, PEG-1500 25%, Triacetin 4.8%, tested compound 2%; F2–Tween 20 43.2%, PEG-400 25%, PEG-1500 25%, DMSO 4.8%, tested compound 2%; F3–PEG-400 25%, PEG-1500 25%, DMSO 48%, tested compound 2%. Considering the disadvantages of currently reported macrogol formulations and the low concentration achieved for the tested compounds (2%), we plan to work on cosmetic emulsions containing the most promising derivatives at higher concentrations as well as required excipients including preservatives, antioxidants, etc. This research will be carried out in the near future.
SMILES,ester hydrolysis in the presence of microsomes [1],Probable Transformation [1],half-life at 20 µM [1] [min],microsomal CLint at 20 µM [1] [µL/min/mg],% of Initial AUC [2],% of Initial SPFin vitro [2],% of Initial UVA PF [2],photostability (in words) ([2]; macrogol formulation),"photoisomer in post-irradiation chromatogram ([2]; macrogol formulation, UPLC-MS/MS) [%]","new photoproduct (besides photoisomer), relative peak area ([2]; macrogol formulation, post-irradiation chromatogram) [%]",εmax [3] [M⁻¹ cm⁻¹],λmax [3] [nm],Absorption Range [3],solubility (in words) [4]
"CCOC(=O)CN1C(=O)/C(=C/c2ccc(OC)cc2)N(CC(=O)OCC)C1=O [Compound 3b, Diethyl 2,2′-((Z)-4-(4-methoxybenzylidene)-2,5-dioxoimidazolidine-1,3-diyl)diacetate]",hydrolysed to monoesters,hydrolysis O-dealkylation,12,75,84.67% and 76.50%,80.46% and 72.69%,87.04% and 84.08%,very good,32.1,2.4,16310,318,290–362 nm,very good solubility
"CCOC(=O)CN1C(=O)/C(=C/C=C/c2ccc(OC)cc2)N(CC(=O)OCC)C1=O [Compound 4g, Diethyl 2,2′-((Z)-4-((E)-3-(4-methoxyphenyl)allylidene)-2,5-dioxoimidazolidine-1,3-diyl)diacetate]",hydrolysed to monoesters,hydrolysis O-dealkylation,3,> 300,51.98%,86.29%,34.39%,favorable photostability,,,54996,379,290–400 nm,
